Values quoted from earlier work in US20140348811A1, “COMPOSITIONS COMPRISING SUGAR-CYSTEINE PRODUCTS” (MAX INTERNATIONAL, LLC, priority 2011, published 2014).

Experiments:
ATP levels = conditions: dogs subjected to ischemia, about 3 g/day for at least 5 days
[1] = administered directly to humans, wide dosage ranges
[2] = healthy humans, orally 8-10 g per day
glutathione levels = conditions: mice, 8 mmol/kg i.p.
[3] = tested on: mice exposed to cyclophosphamide; conditions: 8 mmol/kg
[4] = tested on: irradiation-induced bowel injury; conditions: mice, 1 g/kg
[5] = tested on: acetaminophen hepatic and renal toxicity; conditions: mice, 2 g/kg

SMILES	ATP levels (ATP levels)	toxicity [1]	exercise capacity [2]	increased glutathione levels, heart (glutathione levels; heart)	increased glutathione levels, muscle tissue (glutathione levels; muscle tissue)	delivery of protective amounts of cysteine [3]	protection against irradiation-induced bowel injury [4]	protection against acetaminophen hepatic and renal toxicity [5]
O=C[C@H](O)[C@H](O)[C@H](O)CO [ribose]	effectively restored and maintained ATP levels	essentially non-toxic	increase exercise capacity					
O=C(O)[C@@H]1CSC(C(O)C(O)C(O)CO)N1 (stereo partly drawn) [RibCys, 2(R,S)-D-ribo-(1′,2′,3′,4′-tetrahydroxybutyl)thiazolidine-4(R)-carboxylic acid]				1.5 times	2.5 times	deliver effective protective amounts of cysteine	protect mice against irradiation-induced bowel injury	protect mice against acetaminophen hepatic and renal toxicity
